Measurements taken from patent EP0450761A1, “Spirocyclic oxytocin antagonists” (MERCK & CO. INC., priority 1990, dated 1991).
pIC50, pKd: −log10 of the molar value.

Experiments:
AVP-V₂ sites = biological target: T1, AVP-V₂ sites (Rattus norvegicus, UniProt Q00788); assay: [³H]AVP radioligand binding, crude membrane preparation of male rat kidney medulla (AVP-V₂ sites); conditions: for inhibition at 10 µM: 10 µM test compound, % of specific [³H]AVP binding inhibited (kidney), read-out: Inhibition Vasopressin V2 % inhibition @ 10
T1 construct: male rat liver (AVP-V₁ sites) or kidney medulla (AVP-V₂ sites); from tissue; host or cells: male rat kidney medulla, crude membrane preparation
Excerpt: (§1) *Inhibition is expressed either as IC₅₀ in µM, or as % inhibition @ a specified concentration of the test compound (µM). The IC₅₀ is the concentration of the text compound which inhibits specific binding by 50%. The % inhibition at a specified concentration of the test compound is that percentage of specific binding which is inhibited by said concentration of said test compound.

AVP-V₁ sites = biological target: T2, AVP-V₁ sites (Rattus norvegicus, UniProt P30560); assay: [³H]AVP radioligand binding, crude membrane preparation of male rat liver (AVP-V₁ sites); conditions: for inhibition at 10 µM: 10 µM test compound, % of specific [³H]AVP binding inhibited (liver), read-out: Inhibition Vasopressin V1 % inhibition @ 10; for pIC50: 1 nM [³H]AVP, rat liver membranes, 30 min at 30°C, read-out: Inhibition Vasopressin V1 IC50
T2 construct: a crude membrane preparation of male rat liver (AVP-V₁ sites); from tissue; host or cells: male rat liver, crude membrane preparation
Excerpt: as §1

uterine OT receptors = biological target: T3, uterine OT receptors (Rattus norvegicus, UniProt P70536); assay: [³H]OT radioligand binding to uterine OT receptors, crude membrane preparation of uteri from DES-treated rats
T3 construct: a crude membrane preparation of uteri; from tissue; host or cells: uterus of DES-treated rats, crude membrane preparation
T3 sequence (P70536 1-388): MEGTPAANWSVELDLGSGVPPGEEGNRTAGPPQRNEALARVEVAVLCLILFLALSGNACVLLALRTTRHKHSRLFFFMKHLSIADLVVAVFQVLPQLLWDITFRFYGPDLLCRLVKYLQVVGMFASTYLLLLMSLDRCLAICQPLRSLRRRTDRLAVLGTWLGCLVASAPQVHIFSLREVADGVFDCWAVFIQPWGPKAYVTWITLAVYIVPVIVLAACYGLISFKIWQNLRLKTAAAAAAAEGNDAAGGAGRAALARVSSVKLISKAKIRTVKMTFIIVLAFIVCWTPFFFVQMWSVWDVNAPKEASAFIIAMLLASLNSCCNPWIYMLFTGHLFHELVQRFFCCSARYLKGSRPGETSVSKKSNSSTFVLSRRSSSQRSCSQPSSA
Protocol: Competition studies were conducted at equilibrium (60 min; 22°C) using 1 nM [³H]OT in the following assay buffer: 50 mM Tris-HCl, 5 mM MgCl₂, and 0.1% BSA, pH 7.4.
as §1

T2 sequence (P30560 whole entry): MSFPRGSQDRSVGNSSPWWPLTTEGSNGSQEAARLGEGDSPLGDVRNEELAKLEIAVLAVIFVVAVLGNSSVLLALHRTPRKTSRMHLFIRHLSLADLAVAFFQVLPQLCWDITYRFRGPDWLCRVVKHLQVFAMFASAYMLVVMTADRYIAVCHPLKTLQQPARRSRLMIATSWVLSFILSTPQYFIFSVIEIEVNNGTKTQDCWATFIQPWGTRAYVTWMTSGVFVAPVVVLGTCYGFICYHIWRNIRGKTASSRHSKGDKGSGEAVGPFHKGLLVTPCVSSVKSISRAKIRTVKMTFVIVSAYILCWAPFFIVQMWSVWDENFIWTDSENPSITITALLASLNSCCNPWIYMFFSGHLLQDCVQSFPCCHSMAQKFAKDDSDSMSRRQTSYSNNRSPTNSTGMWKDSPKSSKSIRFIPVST
T1 sequence (Q00788 whole entry): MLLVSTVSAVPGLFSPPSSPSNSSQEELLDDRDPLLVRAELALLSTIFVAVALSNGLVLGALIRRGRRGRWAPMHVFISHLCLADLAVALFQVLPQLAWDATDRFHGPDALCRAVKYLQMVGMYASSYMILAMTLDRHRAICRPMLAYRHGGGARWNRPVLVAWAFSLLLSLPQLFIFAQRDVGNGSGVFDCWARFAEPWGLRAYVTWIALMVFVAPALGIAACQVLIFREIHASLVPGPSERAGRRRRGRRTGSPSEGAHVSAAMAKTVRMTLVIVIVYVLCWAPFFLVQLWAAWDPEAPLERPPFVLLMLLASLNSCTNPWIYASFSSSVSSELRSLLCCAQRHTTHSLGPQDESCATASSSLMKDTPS

Compound | inhibition at 10 µM (AVP-V₂ sites) [%] | inhibition at 10 µM (AVP-V₁ sites) [%] | pIC50 (uterine OT receptors) | other results
CC1(C)[C@@H]2CC[C@@]1(CS(=O)(=O)N1CCC3(C=Cc4ccccc43)CC1)C(=O)C2 [Example 6] | 3 | 2 | – | –
CCC1(O)CC2CC[C@]1(CS(=O)(=O)N1CCC3(C=Cc4ccccc43)CC1)C2(C)C (stereo partly drawn) [Example 15] | – | – | 6.33 | pIC50 (AVP-V₁ sites): ~5.05
[³H]OT [reference compound] | – | – | – | pKd (uterine OT receptors; radioligand, uterus, read-out: Kd values obtained from saturation binding assay): 9.15
CC1(C)[C@@H]2CC[C@@]1(CS(=O)(=O)N1CCC3(C=Cc4ccccc43)CC1)[C@@](O)(CC(=O)O)C2 [Example 20, (1S(1.ALPHA.,2.ALPHA.,4.ALPHA.))-2-HYDROXY-7,7-DIMETHYL-1-((SPIRO(1H-INDENE-1,4′-PIPERIDIN)-1′-YLSULFONYL)METHYL)-BICYCLO-(2.2.1)HEPTANE-2-ACETIC ACID] | – | – | 6.24 | pIC50 (AVP-V₂ sites; 2 nM [³H]AVP, rat kidney medulla membranes, 30 min at 30°C, read-out: Inhibition Vasopressin V2 IC50): 4.08; pIC50 (AVP-V₁ sites): 4.05
CC1(C)[C@@H]2CC[C@@]1(CS(=O)(=O)N1CCC3(C=Cc4ccccc43)CC1)[C@](C)(O)C2 [Example 13, EXO-(1S)-1′-(((2-HYDROXY-2,7,7-TRIMETHYLBICYCLO-(2.2.1)HEPT-1-YL)METHYL)SULFONYL)SPIRO(1H-INDENE-1,4′-PIPERIDINE)] | 5 | 45 | – | –
COC(=O)C[C@@]1(O)C[C@H]2CC[C@]1(CS(=O)(=O)N1CCC3(C=Cc4ccccc43)CC1)C2(C)C [Example 19, (1S(1.ALPHA.,2.ALPHA.,4.ALPHA.))-2-HYDROXY-7,7-DIMETHYL-1-((SPIRO(1H-INDENE-1,4′-PIPERIDIN)-1′-YLSULFONYL)METHYL)BICYCLO(2.2.1)HEPTANE-2-ACETIC ACID METHYL ESTER] | 20 | 54 | – | –
CC1(C)[C@H]2CC[C@]1(CS(=O)(=O)N1CCC3(C=Cc4ccccc43)CC1)C(=O)C2 [Example 7] | 6 | 0 | – | –
CC1(C)[C@@H]2CC[C@@]1(CS(=O)(=O)N1CCC3(C=Cc4ccccc43)CC1)C(=NO)C2 [Example 27] | 21 | 52 | 6.31 | –
CC1(C)[C@@H]2CC[C@@]1(CS(=O)(=O)N1CCC3(C=Cc4ccccc43)CC1)C(O)(c1ccccc1)C2 (stereo partly drawn) [Example 11] | – | – | 6.31 | –
